Assay results: PubChem BioAssay AID248 (DTP/NCI, 2004)
Where “and” joins values, the source holds several entries; their conditions need not be identical. Equal values may be shown once. Inconclusive results and toxic doses are left out.

Test system: L1210 leukemia ip in BDF1 mice, survival T/C
Experiment: NCI In Vivo Anticancer Drug Screen. Data for tumor model L1210 Leukemia (intraperitoneal) in B6D2F1 (BDF1) mice
Conditions: endpoint: mean survival time, higher = longer survival
Outline: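 Survival endpoint. Drug-treated group vs vehicle group, expressed as T divided by C. Tumor passaged by transplantation.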

[1] = dose: 100.0 mg/kg/injection, schedule: Q01DX001 (ip), vehicle: saline
[2] = dose: 100.0 mg/kg/injection, schedule: Q01DX009 (ip), vehicle: Klucel (hydroxypropylcellulose) (HPC)
[3] = dose: 200.0 mg/kg/injection, schedule: Q01DX009 (ip), vehicle: Klucel (hydroxypropylcellulose) (HPC)
[4] = dose: 400.0 mg/kg/injection, schedule: Q01DX009 (ip), vehicle: Klucel (hydroxypropylcellulose) (HPC)
[5] = dose: 100.0 mg/kg/injection, schedule: Q04DX002 (ip), vehicle: saline with Tween-80
[6] = dose: 200.0 mg/kg/injection, schedule: Q04DX002 (ip), vehicle: saline with Tween-80
[7] = dose: 400.0 mg/kg/injection, schedule: Q04DX002 (ip), vehicle: saline with Tween-80
[8] = dose: 200.0 mg/kg/injection, schedule: Q01DX001 (ip), vehicle: saline

For `O=[N+]([O-])c1ccc(O)c([N+](=O)[O-])c1`, the T/C (dose: 3.35 mg/kg/injection, schedule: Q01DX Z (ip), vehicle: carboxymethylcellulose (CMC)) was 94 % of control, the T/C (dose: 10.32 mg/kg/injection, schedule: Q01DX Z (ip), vehicle: carboxymethylcellulose (CMC)) was 95 % of control and the T/C (dose: 13.4 mg/kg/injection, schedule: Q01DX Z (ip), vehicle: carboxymethylcellulose (CMC)) was 98 % of control. For the same compound, the T/C (dose: 17.86 mg/kg/injection, schedule: Q01DX Z (ip), vehicle: carboxymethylcellulose (CMC)) was 94 % of control, the T/C (dose: 26.8 mg/kg/injection, schedule: Q01DX Z (ip), vehicle: carboxymethylcellulose (CMC)) was 88 % of control and the T/C [1] was 94 % of control.
For `CCn1c(=S)[nH]c(=O)c2n[nH]nc21`, the T/C (dose: 100.0 mg/kg/injection, schedule: Q04DX003 (ip), vehicle: saline with Tween-80) was 88 % of control, the T/C (dose: 200.0 mg/kg/injection, schedule: Q04DX003 (ip), vehicle: saline with Tween-80) was 89 % of control and the T/C (dose: 400.0 mg/kg/injection, schedule: Q04DX003 (ip), vehicle: saline with Tween-80) was 93 % of control.
With `Nc1ccc2[nH]c3ccccc3c2c1` the T/C [2] was 95 % of control, the T/C (dose: 100.0 mg/kg/injection, schedule: Q04DX003 (ip), vehicle: Klucel (hydroxypropylcellulose) (HPC)) was 104 % of control and the T/C [3] was 95 % of control. For the same compound, the T/C (dose: 200.0 mg/kg/injection, schedule: Q04DX003 (ip), vehicle: Klucel (hydroxypropylcellulose) (HPC)) was 91 % of control, the T/C [4] was 92 % of control and the T/C (dose: 400.0 mg/kg/injection, schedule: Q04DX003 (ip), vehicle: Klucel (hydroxypropylcellulose) (HPC)) was 94 % of control.
With `CC(C)(C)N1OC2(CCCCC2)n2c(=O)c3ccccc3c(=O)n2C1c1ccccc1` (centres undefined) the T/C [5] was 97 % of control, the T/C [6] was 90 % of control and the T/C [7] was 108 % of control.
`O=C(O)c1cc(S(=O)(=O)F)cc(S(=O)(=O)F)c1` was tested, and the T/C (dose: 100.0 mg/kg/injection, schedule: Q01DX009 (ip), vehicle: saline with Tween-80) was 86 % of control.
With `COC(=O)c1ccccc1NC(=O)c1ccccc1C(=O)O` the T/C (dose: 25.0 mg/kg/injection, schedule: Q01DX009 (ip), vehicle: Klucel (hydroxypropylcellulose) (HPC)) was 100 % of control, the T/C (dose: 50.0 mg/kg/injection, schedule: Q01DX009 (ip), vehicle: Klucel (hydroxypropylcellulose) (HPC)) was 103 % of control and the T/C [2] was 93 % of control and 102 % of control. The T/C (dose: 100.0 mg/kg/injection, schedule: Q04DX002 (ip), vehicle: Klucel (hydroxypropylcellulose) (HPC)) was 98 % of control, the T/C (dose: 150.0 mg/kg/injection, schedule: Q01DX009 (ip), vehicle: Klucel (hydroxypropylcellulose) (HPC)) was 100 % of control and the T/C (dose: 225.0 mg/kg/injection, schedule: Q01DX009 (ip), vehicle: Klucel (hydroxypropylcellulose) (HPC)) was 97 % of control. For the same compound, the T/C (dose: 335.0 mg/kg/injection, schedule: Q01DX009 (ip), vehicle: Klucel (hydroxypropylcellulose) (HPC)) was 102 % of control.
For `CN(C)CCN1C(=O)NC(C)(C)C1=O`, the T/C (dose: 50.0 mg/kg/injection, schedule: Q04DX003 (ip), vehicle: saline) was 96 % of control, the T/C (dose: 100.0 mg/kg/injection, schedule: Q04DX003 (ip), vehicle: saline) was 101 % of control and the T/C (dose: 200.0 mg/kg/injection, schedule: Q04DX003 (ip), vehicle: saline) was 90 % of control. For the same compound, the T/C (dose: 400.0 mg/kg/injection, schedule: Q04DX003 (ip), vehicle: saline) was 93 % of control.
For `CCOCCOCCCNCC(=O)N1CCN(C(=O)CNCCCOCCOCC)CC1`, the T/C (dose: 50.0 mg/kg/injection, schedule: Q01DX001 (ip), vehicle: carboxymethylcellulose (CMC)) was 97 % of control, the T/C (dose: 100.0 mg/kg/injection, schedule: Q01DX001 (ip), vehicle: carboxymethylcellulose (CMC)) was 98 % of control and the T/C (dose: 200.0 mg/kg/injection, schedule: Q01DX001 (ip), vehicle: carboxymethylcellulose (CMC)) was 108 % of control. The T/C (dose: 400.0 mg/kg/injection, schedule: Q01DX001 (ip), vehicle: carboxymethylcellulose (CMC)) was 103 % of control.
With `CC(=O)Oc1cccc(OC(=O)Nc2ccc(C)c(NC(=O)Oc3cccc(OC(C)=O)c3)c2)c1` the T/C [2] was 93 % of control, the T/C [3] was 96 % of control and the T/C [4] was 94 % of control.
In the case of `CCCCCCCCOC(=O)COc1cccc(C)c1`, the T/C [5] is reported as 103 % of control, the T/C [6] is reported as 100 % of control and the T/C [7] is reported as 100 % of control.
For `CC(=O)OCCCC/C(=C/c1cc2ccccc2c2ccccc12)[N+](=O)[O-]`, the T/C (dose: 100.0 mg/kg/injection, schedule: Q01DX009 (ip), vehicle: carboxymethylcellulose (CMC)) was 100 % of control, the T/C (dose: 266.0 mg/kg/injection, schedule: Q01DX009 (ip), vehicle: carboxymethylcellulose (CMC)) was 104 % of control and the T/C (dose: 400.0 mg/kg/injection, schedule: Q01DX009 (ip), vehicle: carboxymethylcellulose (CMC)) was 104 % of control. For the same compound, the T/C (dose: 600.0 mg/kg/injection, schedule: Q01DX009 (ip), vehicle: carboxymethylcellulose (CMC)) was 100 % of control.
With `COc1cc(CCN)ccc1O` the T/C (dose: 100.0 mg/kg/injection, schedule: Q01DX009 (ip), vehicle: saline) was 87 % of control, the T/C (dose: 200.0 mg/kg/injection, schedule: Q01DX009 (ip), vehicle: saline) was 90 % of control and the T/C (dose: 400.0 mg/kg/injection, schedule: Q01DX009 (ip), vehicle: saline) was 95 % of control.
For `Cc1ccc2c(n1)Nc1ncnc(N)c1S2`, the T/C (dose: 12.5 mg/kg/injection, schedule: Q04DX003 (ip), vehicle: Klucel (hydroxypropylcellulose) (HPC)) was 96 % of control and the T/C (dose: 25.0 mg/kg/injection, schedule: Q04DX003 (ip), vehicle: Klucel (hydroxypropylcellulose) (HPC)) was 108 % of control.
With `C(CC1CO1)CC1OC1CC1CO1` (centres undefined) the T/C (dose: 15.0 mg/kg/injection, schedule: Q01DX009 (ip), vehicle: Klucel (hydroxypropylcellulose) (HPC)) was 102 % of control, the T/C (dose: 18.0 mg/kg/injection, schedule: Q04DX003 (ip), vehicle: saline with Tween-80) was 110 % of control and the T/C (dose: 26.0 mg/kg/injection, schedule: Q04DX003 (ip), vehicle: saline with Tween-80) was 110 % of control. For the same compound, the T/C (dose: 30.0 mg/kg/injection, schedule: Q01DX009 (ip), vehicle: Klucel (hydroxypropylcellulose) (HPC)) was 105 % of control, the T/C (dose: 39.0 mg/kg/injection, schedule: Q04DX003 (ip), vehicle: saline with Tween-80) was 106 % of control and the T/C (dose: 40.0 mg/kg/injection, schedule: Q04DX003 (ip), vehicle: saline) was 108 % of control. The T/C (dose: 45.0 mg/kg/injection, schedule: Q01DX009 (ip), vehicle: Klucel (hydroxypropylcellulose) (HPC)) was 108 % of control, the T/C (dose: 59.0 mg/kg/injection, schedule: Q04DX003 (ip), vehicle: saline with Tween-80) was 108 % of control and the T/C (dose: 60.0 mg/kg/injection, schedule: Q01DX009 (ip), vehicle: Klucel (hydroxypropylcellulose) (HPC)) was 113 % of control. The T/C (dose: 80.0 mg/kg/injection, schedule: Q04DX003 (ip), vehicle: saline) was 118 % of control, the T/C (dose: 89.0 mg/kg/injection, schedule: Q04DX003 (ip), vehicle: saline with Tween-80) was 117 % of control and the T/C (dose: 120.0 mg/kg/injection, schedule: Q01DX009 (ip), vehicle: other) was 119 % of control. For the same compound, the T/C (dose: 133.0 mg/kg/injection, schedule: Q01DX009 (ip), vehicle: saline with Tween-80) was 97 % of control, the T/C (dose: 133.0 mg/kg/injection, schedule: Q04DX003 (ip), vehicle: saline with Tween-80) was 115 % of control and the T/C (dose: 160.0 mg/kg/injection, schedule: Q04DX003 (ip), vehicle: saline) was 154 % of control.
For `O=C(Nc1nn[nH]n1)C(F)(F)F`, the T/C [1] was 108 % of control, the T/C [8] was 103 % of control and the T/C (dose: 400.0 mg/kg/injection, schedule: Q01DX001 (ip), vehicle: saline) was 105 % of control.
With `O=CN/N=C/c1ccc(Cl)c([N+](=O)[O-])c1` the T/C (dose: 75.0 mg/kg/injection, schedule: Q01DX001 (ip), vehicle: acetone) was 93 % of control, the T/C (dose: 150.0 mg/kg/injection, schedule: Q01DX001 (ip), vehicle: acetone) was 92 % of control and the T/C (dose: 300.0 mg/kg/injection, schedule: Q01DX001 (ip), vehicle: acetone) was 92 % of control.
In the case of `CCCCCCCCCCCCC(CC(=O)O)C(=O)N(CCO)CCO` (centres undefined), the T/C (dose: 12.5 mg/kg/injection, schedule: Q01DX001 (ip), vehicle: saline) is reported as 97 % of control, the T/C (dose: 25.0 mg/kg/injection, schedule: Q01DX001 (ip), vehicle: saline) is reported as 94 % of control and the T/C (dose: 50.0 mg/kg/injection, schedule: Q01DX001 (ip), vehicle: saline) is reported as 91 % of control. The T/C [8] was 97 % of control.
